These results are taken from patent US20250288587A1, “Methods of Treating Fibrosis” (Athira Pharma, Inc., priority 2022, published 2025).

One assay has as its system MRC-5 cells. Description: TGFβ-stimulated αSMA expression in MRC-5 cells (HTRF). The class given is cell-based. On the set-up: key to Significant reduction in αSMA via HTRF compared to TGFβ alone: NS = no statistically significant change in aSMA expression; + = p < 0.05; ++ = p < 0.01; +++ = p < 0.005; ++++ = p < 0.001. Conditions: for Significant reduction in αSMA via HTRF compared to TGFβ alone: TGFβ 1 ng/ml, 48 h. The protocol: In this study, pulmonary-derived immortalized fibroblasts, MRC-5 cells, were cultured as a model of the early transition to fibrosis, and αSMA expression was measured using an immunodetection system driven by homogenous time-resolved fluorescence (HTRF) technology. This detection system produces a fluorescent signal in the presence of αSMA in cell lysates. Cells were grown to confluence in 96-well culture plates in complete media, and then transitioned to serum-free media for 2 hours. Next TGFβ (final 1 ng/ml in serum-free media) was added to the cells to stimulate the fibrotic transition. After 2 hours, media containing either HGF or HGF combined with one of the compounds was added to the cells. After incubation for 48 hours, cells were lysed and processed for αSMA HTRF to detect the levels of αSMA expression and compared to TGFβ-stimulated cultures. Statistical analysis consisted of 1-way ANOVA with a Dunnett's multiple comparison's post-test.
Background: TR-FRET usually uses a lanthanide donor and a delayed reading to cut background.

For assay [1], the system named is THP-1-differentiated macrophages. Put plainly: Pro-inflammatory cytokine expression in LPS-challenged THP-1-differentiated macrophages. The class given is cell-based, human. Conditions: for IL-1β, significant reduction in culture supernatant vs LPS treatment / IL-6, significant reduction in culture supernatant vs LPS treatment / TNF-α, significant reduction in culture supernatant vs LPS treatment: 20 min pre-treatment, 24 hrs LPS. On the set-up: key to IL-6, significant reduction in culture supernatant vs LPS treatment / TNF-α, significant reduction in culture supernatant vs LPS treatment / IL-1β, significant reduction in culture supernatant vs LPS treatment: “NS” indicates a non-significant reduction in the indicated cytokine; “+” indicates a p value <0.05 in Tukey post test; “++” indicates a p value <0.01 in Tukey post test. As for the experimental part: Differentiation with PMA causes THP-1 monocyte cells to acquire functional and morphological resemblance to macrophages. LPS interacts with THP-1 differentiated macrophage through the toll-like receptor 4, triggering the inflammatory response and stimulating pro-inflammatory cytokine release and eventually leading to cellular death. Compounds were tested to determine their anti-inflammatory effects on LPS-challenged macrophage cultures. THP-1-differentiated macrophages were treated with test compounds for 20 minutes, followed by 24 hrs of LPS challenge. Culture supernatants were then collected to analyzed for the presence of pro-inflammatory cytokines: […], interleukin 6 (IL-6) and tumor necrosis factor α (TNF-α).
Cytokine quantification in cell culture supernatants was accomplished by HTRF kits to assess levels of IL-1β (Human IL-1β kit, #62HIL1BPEG, Cisbio) and IL-6 (Human IL-6 kit, 62HIL06PET, Cisbio), and by ELISA to determine the levels of TNF-α (Human TNF-α ELISA kit, KHC3011, ThermoFisher).
Data analysis was performed via 1-way ANOVA with Tukey post-test compared to LPS treatment cultures using Prism statistical software (GraphPad). Tabular data indicates significance of reduction in culture supernatants for the indicated analyte at the indicated doses.

Assay [2] has as its system C57BL/6 mice, bleomycin-induced pulmonary fibrosis. Put plainly: Bleomycin-induced pulmonary fibrosis in mice. The class given is in vivo. The arrangement: key to Collagen, improvement in BLM-induced alterations versus disease control / Alpha-Smooth Muscle Actin, improvement in BLM-induced alterations versus disease control / Body Weight, improvement in BLM-induced alterations versus disease control / Right Lung Weight, improvement in BLM-induced alterations versus disease control / Hydroxyproline, improvement in BLM-induced alterations versus disease control: + = >5-25% improvement vs disease control; ++ = >26-50% improvement vs disease control; +++ = >51-100% improvement v disease control; NS means not significant. As for the experimental part: Lung fibrosis in C57BL/6 mice is induced by a single […] injection of the chemotherapy drug bleomycin. Mice are treated with vehicle or test compound. At termination (study day 28), one lung is weighed, with increased weight indicating more advanced fibrosis. Lung tissue is also homogenized for hydroxyproline, collagen, and TGF-β quantification. Lung tissue is also formalin-fixed and further processed for H&E, collagen morphometry, Ashcroft's score, and both α-SMA and TUNEL expression analyses. Plasma is analyzed by multiplex bead array for MMP-2, MMP-9, IL-1β, IL-6, IL-12, and TNF-α expression.
The experimental design described in Example B1 with the following changes was used to assess the ability of Compound 1a to reduce pulmonary fibrosis. Briefly, Male C57BL/6 mice (Envigo) […] were used. The mice were 3.5-4 months old and ˜24-30 g by weight. On day −1 animals were randomized based on body weight and the animals were assigned with a permanent number by ear notching. Cages were identified by cage cards indicating the study code, group number, sex, dose, cage number, number of animals and animal number details.
On day 0, all animals (except the sham control animals) were administered bleomycin (0.03 U in 50 μl normal saline) intratracheally (i.t.) under Ketamine+Xylazine anesthesia. The sham control animals were dosed with 50 μl of normal saline intratracheally. Pirfenidone was used as a positive control; this compound is known to downregulate growth factors and procollagens to reduce fibrosis and is an approved drug for the treatment of idiopathic pulmonary fibrosis.
Vehicle, pirfenidone and test Compound 1a dosing was initiated from day 3 to day 21 as described in the following Table 2. On day 21 whole blood was collected 1-hour post-dose into EDTA and then processed to plasma. Right lungs were then collected, weighed, snap frozen and later homogenized for biochemical analysis. Hydroxyproline, collagen and TGF-Beta levels were measured in the right lung homogenates.

The test system of assay [3] is BALB/c mice, CCl4 mouse model of liver fibrosis. Put plainly: CCl4-induced liver fibrosis, plasma AST. The class given is in vivo. The protocol:
Liver fibrosis in BALB/c mice was induced by biweekly intraperitoneal injections of carbon tetrachloride (CCl4) from study day 0 to 43. Mice were treated with vehicle, Compound 1a, or positive control, SB535334, beginning at study day 21. At termination (study day 43), plasma was tested for liver function via levels of aspartate aminotransferase (AST).
AST can be used as a marker of liver damage, because increased levels are released in the blood stream in chronic liver disease.

The mark [4] stands for this setting: dose 100 mg/kg PO twice daily, right lung homogenate, day 21.

Where a SMILES comes first, the peptide text is derived from it. [ ]: non-standard residue; d: D form. The star is where a group is joined. Hexanoyl = CCCCCC(=O)*; Ahx = NCCCCCC(=O)O

Turning to `CCCCCC(=O)N[C@@H](Cc1ccc(O)cc1)C(=O)N[C@H](C(=O)NCCCCCC(N)=O)[C@@H](C)CC` [Compound A19-AM, Dihexa] (Hexanoyl-Tyr-Ile-[Ahx]-NH2), the αSMA expression result in the assay with MRC-5 cells (1 uM, combined with 0.01 ng/ml HGF) is recorded as “significantly reduced αSMA”. The “Significant reduction in αSMA via HTRF compared to TGFβ alone” value in the assay with MRC-5 cells (test compound 1 nM, HGF 0.01 ng/ml) is recorded as “NS”; with MRC-5 cells (test compound 1 μM, HGF 0.01 ng/ml), “++++ (++++ = p < 0.001)”. In addition, the “IL-1β, significant reduction in culture supernatant vs LPS treatment” value was “NS” in assay [1] (0.1 nM), “++ (“++” indicates a p value <0.01 in Tukey post test)” in assay [1] (10 nM) and “+ (“+” indicates a p value <0.05 in Tukey post test)” in assay [1] (1000 nM). Also, the “IL-6, significant reduction in culture supernatant vs LPS treatment” value was “NS” in assay [1] (0.1 nM), “+ (“+” indicates a p value <0.05 in Tukey post test)” in assay [1] (10 nM) and “++ (“++” indicates a p value <0.01 in Tukey post test)” in assay [1] (1000 nM). For the same molecule, the results for the “TNF-α, significant reduction in culture supernatant vs LPS treatment” value in assay [1] (0.1 nM), in assay [1] (10 nM) and in assay [1] (1000 nM) were “NS”, “+ (“+” indicates a p value <0.05 in Tukey post test)” and “+ (“+” indicates a p value <0.05 in Tukey post test)”, respectively. For the same molecule, the “expression of IL-1β and TNF-α” value in assay [1] (at at least one tested dose) is “significantly reduced”. In addition, the “expression of IL-6” value in assay [1] (at at least one tested dose) is on record as “significantly reduced”.

On to `Cc1ccc(=O)n(-c2ccccc2)c1` [Pirfenidone, reference compound], for which the “bleomycin-induced increases in TGF-β in right lung homogenates” value in assay [2] (all doses, day 21) is “significantly protected against bleomycin-induced increases in TGF-β”. For the same molecule, in assay [2] (all treatment groups, over the study period), the “protection against bleomycin-induced body weight loss” value was “did not protect against body weight loss”. The “Body Weight, improvement in BLM-induced alterations versus disease control” value in assay [2] (dose 100 mg/kg PO twice daily, days 3-21) is listed as “NS”. Moreover, in assay [2] (dose 100 mg/kg PO twice daily, days 3-21, day 21), the “Right Lung Weight, improvement in BLM-induced alterations versus disease control” value was “+ (+ = >5-25% improvement vs disease control)”. Besides, in assay [2] (dose 100 mg/kg PO twice daily, day 21), the “Alpha-Smooth Muscle Actin, improvement in BLM-induced alterations versus disease control” value is recorded as “+ (+ = >5-25% improvement vs disease control)”. In assay [2] (setting [4]), the “Collagen, improvement in BLM-induced alterations versus disease control” value was “++ (++ = >26-50% improvement vs disease control)”; the “Hydroxyproline, improvement in BLM-induced alterations versus disease control” value is on record as “NS”; the “TGF-Beta, improvement in BLM-induced alterations versus disease control” value is reported as “+++ (+++ = >51-100% improvement v disease control)”. In assay [2] (other doses of Compound 1a, pirfenidone doses, day 21), the “alpha-smooth muscle actin morphometory” value is recorded as “insignificant decreases”.

Take `Cc1cccc(-c2[nH]c(C(C)(C)C)nc2-c2ccc3nccnc3c2)n1` [SB525334, reference compound]: the “AST in plasma, improvement compared to disease control” value in assay [3] (Dose 30, from study day 21, termination day 43) is given as “− (− = change of <5% compared to disease control)”. In assay [3] (positive control), the “AST levels in plasma compared to CCl4-treated mice receiving vehicle” value is given as “significant increases”.

As to “HGF: Hepatocyte growth factor protein, added alone or with test compounds”, the figures for the “Significant reduction in αSMA via HTRF compared to TGFβ alone” value in the assay with MRC-5 cells (HGF 0.01 ng/ml alone), with MRC-5 cells (HGF 1 ng/ml alone) and in the assay on MRC-5 cells (HGF 10 ng/ml alone) were “NS”, “NS” and “+++ (+++ = p < 0.005)”, respectively. In addition, the “αSMA expression, HGF alone” value in the assay on MRC-5 cells (TGFβ-stimulated MRC-5 cells) is on record as “significantly reduce αSMA expression at high (10 ng/ml) but not low (0.01 or 1 ng/ml) concentrations”.
